According to patent US20240156861A1, “Cisplatin particles and uses thereof” (CRITITECH, INC., priority 2022, published 2024):

Experiments:
Format in all cases: physicochemical
[1] = Particle Size Distribution (PSD) by laser diffraction, Malvern Mastersizer 3000; conditions: dispersed in ethyl acetate
Method: Particle Size Distribution (PSD) by Laser Diffraction
Particle size analyses were conducted on a Malvern Mastersizer™ 3000 using the Hydro MV dispersion unit. A non-validated general PSD method/dispersant method was used to analyze the cisplatin samples. The sample preparation procedure performed was as follows:
Weigh 10 to 20 mg of cisplatin into a 30-mL vial, add 20 mL of ethyl acetate. Disperse the sample by vortexing then sonicating the suspension in an ultrasonic bath for 1 minute. Then transfer the sample suspension to the Malvem Hydro MV dispersion unit to obtain obscuration between 5 and 15%.

[2] = Specific Surface Area (SSA) by BET sorptometry
Method: As used herein, the “specific surface area” is the total surface area of the cisplatin particle per unit of cisplatin mass as measured by the Brunauer—Emmett—Teller (“BET”) isotherm (i.e.: the BET SSA). As will be understood by those of skill in the art, the SSA is determined on a per gram basis and takes into account both agglomerated and non-agglomerated cisplatin particles in the composition. The BET specific surface area test procedure is a compendial method included in both the United States Pharmaceopeia and the European Pharmaceopeia. The cisplatin particles have a specific surface area (SSA) of at least 3.5 m^2/g. In various further embodiments, the cisplatin particles have a SSA of at least 4 m^2/g, 5 m^2/g, 6 m^2/g, 7 m^2/g, 8 m^2/g, 9 m^2/g, 10 m^2/g, 11 m^2/g, 12 m^2/g, 13 m^2/g, 14 m^2/g, […] m^2/g, 17 m^2/g, 18 m^2/g, 19 m^2/g 20 m^2/g 21 m^2/g, 22 m^2/g, 23 m^2/g, or 24 m^2/g.
Specific Surface Area (SSA) determination by BET Sorptometry
Surface area analyses were conducted on a Quantachrome NOVAtouch™ LX2 BET Sorptometer. […] Surface area results can be found in Table 1.

[3] = Bulk density analysis (modified USP <616> Method I, 10 mL graduated cylinder); conditions: not tapped
Method: As used herein, the bulk density of the cisplatin particles is the mass of the totality of particles in the composition divided by the total volume they occupy when poured into a graduated cylinder and not tapped. The total volume includes particle volume, inter-particle void volume, and internal pore volume.
Bulk density analysis by modified USP <616>Bulk Density of Powders Method I
Bulk density analyses were conducted using a 10 mL graduated cylinder due to low sample volume. SC1 was the only precipitate measured due to insufficient materials available for analysis from SC2 and SC3. […] Bulk density results can be seen in Table 1.

N.N.[Cl][Pt][Cl] [Raw, Cisplatin]
PSD - Mastersizer Dv10 [1]: 1.72 μm | PSD - Mastersizer Dv50 [1]: 10.9 μm | PSD - Mastersizer Dv90 [1]: 25.9 μm | Surface Area [2]: 2.44 m^2/g | Bulk Density [3]: 1.01 g/mL
